Measured values taken from US20250059202A1, “CRYSTAL FORM OF FUSED RING DERIVATIVE, AND PREPARATION METHOD THEREFOR AND USE THEREOF” (SHANGHAI YINGLI PHARMACEUTICAL CO., LTD, priority 2022, published 2025).
Several values for one entry are separate records, joined by “and”; a condition that tells them apart may be missing. Identical values can stand only once. One block for each compound: values may come before it.

Legend:
Assay type in all cases: physicochemical
[1] = Hygroscopicity under condition of high humidity
[2] = Dynamic Vapor Sorption (DVS)
Description: An Advantage 1.0 dynamic moisture adsorption instrument from SMS was used to detect, the temperature is 25° C., the relative humidity range is 0%-95%, humidity change step is relative humidity 5%, when the value of the mass change rate dm/dt is less than 0.002%, it is considered equilibrium of the balance, when the mass change rate is less than 0.01%/minute within 5 minutes, it is considered as standards of equilibrium in detection process, the maximum equilibrium time is 2 hours.

[3] = Heating experiments (105° C., XRPD); conditions: about 1 hour
[4] = Stability of crystal form I in solvent at room temperature (suspension equilibrium, XRPD)
[5] = Stability of crystal form I in solvent at high temperature (50° C., XRPD)
[6] = Influencing factor stability test, high temperature (60±2° C.)
[7] = Influencing factor stability test, high humidity (25° C., RH92.5±5%)
[8] = Influencing factor stability test, light (4500±500 Lux, 25° C.)
[9] = Accelerated stability (40±2° C., RH 75±5%)
[10] = Competition experiments of crystal form I and crystal form IV in solvents at room temperature; conditions: 7 days, each tested solvent

XRPD after heating compared to before heating [3]: transform to the crystal form I
SMILES: CC(C)(Cc1cc2c(-c3ccc(C#N)cc3)cncc2s1)C(=O)O [crystal form III, 3-[4-(4-Cyanophenyl)thieno[2,3-c]pyridin-2-yl]-2,2-dimethylpropanoic acid]

XRPD after heating compared to before heating [3]: unchanged
solid form after competition between crystal form I and crystal form IV (XRPD) [10]: transformed to the crystal form I
SMILES: CC(C)(Cc1cc2c(-c3ccc(C#N)cc3)cncc2s1)C(=O)O [crystal form IV, 3-[4-(4-Cyanophenyl)thieno[2,3-c]pyridin-2-yl]-2,2-dimethylpropanoic acid]

XRPD after heating compared to before heating [3]: transform to the crystal form I
SMILES: CC(C)(Cc1cc2c(-c3ccc(C#N)cc3)cncc2s1)C(=O)O [crystal form VI, 3-[4-(4-Cyanophenyl)thieno[2,3-c]pyridin-2-yl]-2,2-dimethylpropanoic acid]

Further lines, the compound ahead of its results:

SMILES: CC(C)(Cc1cc2c(-c3ccc(C#N)cc3)cncc2s1)C(=O)O [amorphous form, 3-[4-(4-Cyanophenyl)thieno[2,3-c]pyridin-2-yl]-2,2-dimethylpropanoic acid]
hygroscopicity (in words) [1]: strong hygroscopicity

SMILES: CC(C)(Cc1cc2c(-c3ccc(C#N)cc3)cncc2s1)C(=O)O [crystal form I, 3-[4-(4-Cyanophenyl)thieno[2,3-c]pyridin-2-yl]-2,2-dimethylpropanoic acid]
hygroscopicity (in words) [2]: non-hygroscopic
mass increase compared with the initial mass (DVS) ([2]; relative humidity from 0 to 95%, 25° C.): 0.00944% and 0.01%
XRPD after heating compared to before heating [3]: unchanged
crystal form after suspension equilibrium (XRPD) ([4]; 7 days, single organic solvents (methanol, ethanol, isopropanol, acetone, ethyl acetate etc.)): unchanged
crystal form after suspension equilibrium (XRPD) ([4]; 14 days, water and methanol-, ethanol-, isopropanol-, acetone-water mixtures): unchanged
crystal form after suspension equilibration (XRPD) ([5]; 30 days, methanol-water, ethanol-water, isopropanol-water, acetone-water 50:50): unchanged
crystal form after suspension equilibration (XRPD) ([5]; 43 days, methanol, ethanol, isopropanol, acetone or ethyl acetate): unchanged
Assay ([6]; 0 day): 99.1%
Polymorph ([6]; 0 day): Crystal form I
Total impurities ([6]; 0 day): 0.05%
Water content ([6]; 0 day): 0.05%
Assay ([6]; 5 days): 101.1%
Polymorph ([6]; 5 days): Crystal form I
Total impurities ([6]; 5 days): 0.07%
Water content ([6]; 5 days): 0.04%
Assay ([6]; 10 days): 100.0%
Polymorph ([6]; 10 days): Crystal form I
Total impurities ([6]; 10 days): 0.07%
Water content ([6]; 10 days): 0.04%
Assay ([7]; 0 day): 99.1%
Polymorph ([7]; 0 day): Crystal form I
Total impurities ([7]; 0 day): 0.05%
Water content ([7]; 0 day): 0.05%
Assay ([7]; 5 days): 100.1%
Polymorph ([7]; 5 days): Crystal form I
Total impurities ([7]; 5 days): 0.07%
Water content ([7]; 5 days): 0.06%
Assay ([7]; 10 days): 100.6%
Polymorph ([7]; 10 days): Crystal form I
Total impurities ([7]; 10 days): 0.07%
Water content ([7]; 10 days): 0.09%
Assay ([8]; 0 day): 99.1%
Polymorph ([8]; 0 day): Crystal form I
Total impurities ([8]; 0 day): 0.05%
Water content ([8]; 0 day): 0.05%
Assay ([8]; 5 days): 99.8%
Polymorph ([8]; 5 days): Crystal form I
Total impurities ([8]; 5 days): 0.07%
Water content ([8]; 5 days): 0.04%
Assay ([8]; 10 days): 100.3%
Polymorph ([8]; 10 days): Crystal form I
Total impurities ([8]; 10 days): 0.12%
Water content ([8]; 10 days): 0.09%
Assay ([9]; 0 day): 99.1%
Total impurities ([9]; 0 day): 0.05%
Water content ([9]; 0 day): 0.04%
Assay ([9]; 1 month): 99.2%
Total impurities ([9]; 1 month): 0.05%
Water content ([9]; 1 month): 0.06%
Assay ([9]; 2 months): 98.6%
Total impurities ([9]; 2 months): 0.03%
Water content ([9]; 2 months): 0.03%
Assay ([9]; 3 months): 98.5%
Total impurities ([9]; 3 months): 0.03%
Water content ([9]; 3 months): 0.04%
Assay ([9]; 6 months): 99.7%
Total impurities ([9]; 6 months): 0.05%
Water content ([9]; 6 months): 0.10%
